According to US8163909B2, “Substituted hydroxyethyl amine compounds as beta-secretase modulators and methods of use” (Amgen Inc., priority 2007, dated 2012):
Like-named read-outs stand apart in the source and are kept apart here.

Tests used:
[1] = target: Beta Secretase enzyme (BACE) (Homo sapiens, UniProt P56817); assay: In vitro enzymatic BACE FRET (fluorescence resonance energy transfer) assay; assay type: biochemical;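 further: fluorescence read after 1 h with 50 nM quenched peptide substrate spanning the BACE cleavage site, in pH 4.2 acetate buffer containing 10% DMSO and nonionic detergent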
Sequence of Beta Secretase enzyme (BACE) (P56817 46-501): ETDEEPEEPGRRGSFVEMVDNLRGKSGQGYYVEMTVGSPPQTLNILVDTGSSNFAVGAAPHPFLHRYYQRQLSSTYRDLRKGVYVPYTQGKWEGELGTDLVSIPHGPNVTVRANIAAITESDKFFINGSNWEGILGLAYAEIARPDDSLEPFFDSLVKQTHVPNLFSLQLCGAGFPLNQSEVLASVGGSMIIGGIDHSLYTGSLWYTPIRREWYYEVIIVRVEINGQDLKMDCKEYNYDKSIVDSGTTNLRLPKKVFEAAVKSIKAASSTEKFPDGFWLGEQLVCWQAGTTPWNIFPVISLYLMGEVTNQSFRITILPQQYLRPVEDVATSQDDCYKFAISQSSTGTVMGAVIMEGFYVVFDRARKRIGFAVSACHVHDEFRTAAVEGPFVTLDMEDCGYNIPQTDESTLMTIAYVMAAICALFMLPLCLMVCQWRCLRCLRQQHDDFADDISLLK

[2] = system: Aβ40 in conditioned medium of cells stably expressing Amyloid Precursor Protein (APP); assay: In vitro BACE cell-based assay (Aβ40 in conditioned medium, sandwich ELISA);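 further: compounds added as a dilution series, secreted peptide quantified by europium time-resolved fluorescence readout, potency fitted from percent of control versus compound concentration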
[3] = BACE enzyme FRET assay, read-out: BACE1 FRET assay (IC50)
[4] = Homo sapiens, HEK293, HEK cells, cell-based assay, read-out: HEK cell assay (IC50)
[5] = BACE enzyme assay, IC50's in uM, read-out: BACE1 FRET assay
[6] = BACE enzyme assay, read-out: BACE1 FRET assay (IC50)

SMILES	IC50 [1, 3] [µM]	IC50 [2, 4] [µM]	IC50 [1, 6] [µM]	further results
CO[C@H](C)C(=O)N[C@@H](Cc1cc(F)cc(F)c1)[C@H](O)CN[C@H]1CC2(CCC2)Oc2ncc(CC(C)(C)C(F)F)cc21 [compound 228]	0.00615	0.00756	–	–
COCC(=O)N[C@@H](Cc1cccc(-c2nccs2)c1)[C@H](O)CN[C@H]1CC2(CCC2)Oc2cnc(CC(C)(C)C)cc21 [compound 807]	–	–	–	IC50 [1, 5]: 0.019 µM; IC50 ([2]; Homo sapiens, HEK293, HEK cell-based assay, IC50's in uM, read-out: HEK cell assay): 0.054 µM
COCC(=O)N[C@@H](Cc1ccc(F)cc1)[C@H](O)CN[C@H]1CC2(CCC2)Oc2ncc(CCC(F)(F)F)cc21 [compound 193]	0.202	0.518	–	–
COCC(=O)N[C@@H](Cc1ccc(F)c(OC)c1)[C@H](O)CN[C@H]1CC2(CCC2)Oc2ncc(CC(C)(C)C)cc21 [compound 79]	–	0.0148	0.00637	–
CC(C)(C)Cc1cnc2c(c1)[C@@H](NC[C@@H](O)[C@H](Cc1cc(F)cc(F)c1)NC(=O)OCc1cncs1)CC1(CCC1)O2 [compound 93]	–	0.0792	0.00495	–
COCC(=O)N[C@@H](Cc1ccc2c(c1)OCO2)[C@H](O)CN[C@H]1CC(C)(C)Cc2sc(CC(C)(C)C)cc21 [compound 187]	0.0202	0.0635	–	–
CC(C)(C)Cc1cnc2c(c1)[C@@H](NC[C@@H](O)[C@H](Cc1ccc3c(c1)OCO3)NC(=O)OCc1cncs1)CC1(CCC1)O2 [compound 101]	–	–	0.159	IC50 ([2]; HEK cells, cell-based assay, read-out: HEK cell assay (IC50)): 1.85 µM
CC(=O)N[C@@H](Cc1ccc2c(c1)OCO2)[C@H](O)CN[C@H]1CC2(CCC2)Oc2ccc(CC(C)(C)C)cc21 [compound 281]	0.0112	0.0597	–	–
CO[C@@H](C)C(=O)N[C@@H](Cc1ccc(F)cc1)[C@H](O)CN[C@H]1CC2(CCC2)Oc2ncc(CC(C)(C)C)cc21 [compound 155]	–	0.076	0.0401	–
CC(O)C(=O)N[C@@H](Cc1ccc(F)cc1)[C@H](O)CN[C@H]1CC2(CCC2)Oc2ncc(CC(C)(C)C)cc21 (stereo partly shown) [compound 156]	–	0.0453	0.0277	–
CC(=O)N[C@@H](Cc1ccc(F)cc1)[C@H](O)CN[C@H]1CC2(CCC2)Oc2ncc(CC(C)(F)F)cc21 [compound 274]	0.0297	0.0727	–	–
CC(=O)N[C@@H](Cc1ccc2c(c1)OCO2)[C@H](O)CN[C@H]1CC2(CCC2)Oc2nc(F)c(CC(C)C)cc21 [compound 338]	–	–	–	IC50 ([1]; Table 1, read-out: BACE1 FRET assay): 0.109 µM; IC50 ([2]; Homo sapiens, HEK293, Table 1, HEK cells, read-out: HEK cell assay): 0.252 µM
C#Cc1ccc(C[C@H](NC(=O)COC)[C@H](O)CN[C@H]2CC3(CCC3)Oc3ncc(CC(C)C)cc32)cc1 [Example 855]	–	–	–	IC50 [1, 5]: 0.062 µM; IC50 ([2]; Homo sapiens, HEK293, cell-based assay, HEK cells, IC50's in uM, read-out: HEK cell assay): 0.174 µM
COCC(=O)N[C@@H](Cc1cc(Cl)c2c(c1)OCO2)[C@H](O)CN[C@H]1CC2(CCC2)Oc2ncc(CC(C)(C)C)cc21 [compound 208]	0.00641	0.00996	–	–
CC(F)(F)Oc1cnc2c(c1)[C@@H](NC[C@@H](O)[C@H](Cc1cccc(F)c1)NC(=O)[C@@H]1CCC(=O)O1)CC1(CCC1)O2 [compound 152]	–	0.0336	0.0106	–
CO[C@H](C)C(=O)N[C@@H](Cc1ccc(F)cc1)[C@H](O)CN[C@H]1CC2(CCC2)Oc2c(-c3ccncc3)cc(CC(C)(C)F)cc21 [compound 577]	–	–	–	IC50 ([1]; read-out: BACE1 FRET assay (IC50)): 0.115 µM; IC50 ([2]; Homo sapiens, HEK293, HEK cells, read-out: HEK cell assay (IC50)): 0.057 µM
CC(=O)N[C@@H](Cc1ccc(F)cc1)[C@H](O)CN[C@H]1CC2(CCC2)Oc2ccc(CC(C)(C)F)cc21 [compound 200]	0.206	0.375	–	–
COCC(=O)N[C@@H](Cc1ccc(F)cc1)[C@H](O)CN[C@H]1CC2(CCC2)Oc2ncc(CC3(C(F)(F)F)CC3)cc21 [compound 311]	0.0515	0.307	–	–
CC(=O)N[C@@H](Cc1cccc(F)c1)[C@H](O)CN[C@H]1CC2(CCC2)Oc2ncc(OC(C)(F)F)cc21 [compound 151, N-((1S,2R)-3-(((4′S)-6′-((1,1-difluoroethyl)oxy)-3′,4′-dihydrospiro[cyclobutane-1,2′-pyrano[2,3-b]pyridin]-4′-yl)amino)-1-((3-fluorophenyl)methyl)-2-hydroxypropyl)acetamide]	–	0.0841	0.0205	–
COCC(=O)N[C@@H](Cc1cc(F)cc(F)c1)[C@H](O)CN[C@H]1CC2(CCC2)Oc2ncc(CC(C)(C)C#N)cc21 [compound 92]	–	0.00621	0.00325	–
